Consider 15 compounds from publication PMC9698773, “Design, Synthesis, Molecular Modeling, and Anticancer Evaluation of New VEGFR-2 Inhibitors Based on the Indolin-2-One Scaffold” (Pharmaceuticals, 2022).

The structures appear in SMILES notation.

Usually IC50 stands for the concentration that gives 50% inhibition. Low values mean higher potency, high ones lower potency. The term melting point denotes the temperature of the solid-liquid transition.

Series [1] deals with MCF-7 cell line. Put plainly: MTT cytotoxicity assay, MCF-7. Type of series: cell-based, human. The conditions noted are these: Homo sapiens, MCF7; MTT assay; mean ± SD of three experiments. The procedure: (§1) The cytotoxic activities against breast MCF-7 and liver HepG2 cancer cell lines for all the synthesized compounds 3a,b–17a,b were evaluated by MTT-based cytotoxicity assay. Sunitinib was selected as a reference standard in this study, and the results are presented as IC50 in Table 1.
(§2) The anticancer activities of the target compounds 3a,b–17a,b were quantitatively assessed using the MTT protocol against the MCF-7 and HepG2 cell lines, as described in the Supplementary Materials. […]
(§3) 4.2. Biological investigation
(§4) 4.2.1. In vitro cytotoxic activity assay
(§5) Citation: Abdelgawad, M.A.; Cell Line cells were obtained from the American Type Culture Collection. The cells Hayallah A.M.; Bukhari S.N.A.; were cultured using DMEM (Invitrogen/Life Technologies) supplemented with 10% FBS Musa A.; Elmowafy M.; (Hyclone,), 10 ug/ml of insulin (Sigma), and 1% penicillin‐streptomycin. All of the other Abdel‐Rahman, H.M.; chemicals and reagents were from Sigma or Invitrogen. Plate cells (cells density 1.2 – 1.8 Abd El‐Gaber, M.K. Design, × 10,000 cells/well) in a volume of 100μl complete growth medium + 100 μl of the tested Synthesis, Molecular Modeling, and compound per well in a 96‐well plate for 24 hours before the MTT assay. The tested com‐ Anticancer Evaluation of New pounds were dissolved in DMSO just before the test.
(§6) VEGFR‐2 Inhibitors Based on the Indolin‐2‐One Scaffold. 4.2.1.1. Cell culture protocol
(§7) Pharmaceuticals 2022, 15, x. The culture medium was removed to a centrifuge tube. The cell layer was briefly https://doi.org/10.3390/xxxxx rinsed with 5 mL of 0.25% (w/v) Trypsin and 3 mL of 0.53 mM EDTA solution to remove Academic Editor(s): Mary J. Meegan all traces of serum which contains Trypsin inhibitor. Next, 2.0 to 3.0 ml of Trypsin EDTA Received: 18 October 2022 solution was added to the flask and cells were observed under an inverted microscope Accepted: 9 November 2022 until the cell layer was dispersed (usually within 5 to 15 minutes). Then, 6.0 to 8.0 mL of Published: 14 November 2022 complete growth medium was added and cells aspirated by gently pipetting. The cell suspension was transferred to the centrifuge tube with the medium and cells from step 1, Publisher’s Note: MDPI stays neu‐and centrifuged at approximately 125 xg for 5 to 10 minutes. The supernatant was dis‐ tral with regard to jurisdictional carded and the cell pellet was suspended in fresh growth medium. Appropriate aliquots claims in published maps and institu‐ of the cell suspension were added to new culture vessels and incubated at 37°C for 24 hrs. tional affiliations. After treatment of cells with the serial concentrations of the compound to be tested, incu‐ bation was carried out for 48 h at 37 °C. The plates were examined under an inverted mi‐ croscope and proceeded for the MTT assay […]
(§8) Submitted for possible open access 4.2.1.2. […]
(§9) HepG‐2) were used in this test. At first, the cell lines were cultured in RPMI‐1640 medium Pharmaceuticals 2022, 15, x. https://doi.org/10.3390/xxxxx. www.mdpi.com/journal/pharmaceuticals […]
(§10) Pharmaceuticals 2022, 15, x FOR PEER REVIEW 2 of 22 with 10% fetal bovine serum. Antibiotics (100 units/ml penicillin and100 μg/ml strepto‐ mycin) were added at 37 °C in a 5% CO2 incubator. The cell lines were seeded in a 96‐well plate at a density of 1.0 x 10^4 cells / well at 37 °C for 48 h under 5% CO2. After incubation, the cells were treated with different concentrations of the synthesized compounds and incubated for 24 h. After 24 h of drug treatment, 20 μl of MTT solution (5mg/ml) was added and incubated for 4 h. 100 μl of dimethyl sulfoxide (DMSO) was added into each well to dissolve the formed purple formazan. The colored solution was measured and recorded at an absorbance of 570 nm using a plate reader (EXL 800, USA). The relative cell viability was calculated in percentage as (A570 of treated samples/A570 of untreated sam‐ ple) X 100. The half maximal inhibitory concentration (IC50) values were presented using […]
(In general: Tetrazolium dyes change colour on reduction, which living cells bring about.)

For series [2], the system named is HepG2 cell line. Put plainly: MTT cytotoxicity assay, HepG2. Type of series: cell-based, human. To be noted: Homo sapiens, HepG2, MTT assay; mean ± SD of three experiments. The procedure: as §1, §2, §3, §4, §5, §6, §7, §8, §9, §10

On to `CCOC(=O)c1ccc(/N=C2\C(=O)Nc3ccccc32)cc1` [Compound 7a], for which the IC50 in series [1] amounted to 14.9 ± 0.7 µM; in series [2], 10.9 ± 0.53 µM.
For `CCOC(=O)c1ccc(/N=C2\C(=O)Nc3ccc(F)cc32)cc1` [Compound 7b], the IC50 in series [1] turned out to be 3.81 ± 0.2 µM; in series [2] it was 2.23 ± 0.11 µM.
For the compound `O=C1Nc2ccccc2C1=Nc1ccc(C(=O)NN=Cc2ccc([N+](=O)[O-])cc2)cc1` [Compound 10a, N′-(4-Nitrobenzylidene)-4-((2-oxoindolin-3-ylidene)amino)benzohydrazide], the melting point fell in the range of 220 to 222 °C. This compound also came in with an IC50 in series [1] of 40 ± 2 µM. For the same compound, it took 8.24 ± 0.4 µM to reach half-maximal inhibition in series [2] (IC50).
Regarding `CCOC(=O)CC(C)=NNC(=O)c1ccc(N=C2C(=O)Nc3ccc(F)cc32)cc1` [Compound 14b, Ethyl 3-(2-(4-((5-Fluoro-2-oxoindolin-3-ylidene)amino)benzoyl)hydrazono)butanoate], the melting point was 213 to 215 °C. This compound also showed an IC50 in series [1] of 32.9 ± 1.61 µM. This compound showed a concentration for half-maximal inhibition (IC50) in series [2] of 13.8 ± 0.67 µM.
Regarding `CCN(CC)CCNC(=O)c1c(C)[nH]c(/C=C2\C(=O)Nc3ccc(F)cc32)c1C` [Sunitinib, reference compound], the IC50 in series [1] was 4.77 ± 0.29 µM; in series [2], 2.23 ± 0.11 µM.
In the case of `CNC(=S)NNC(=O)c1ccc(N=C2C(=O)Nc3ccccc32)cc1` [Compound 5a, N-Methyl-2-(4-((2-oxoindolin-3-ylidene)amino)benzoyl)hydrazinecarbothioamide], the melting point fell in the range of 249 to 251 °C. The same compound displayed an IC50 in series [1] of 6.42 ± 0.55 µM. In series [2], inhibition was half-maximal at 5.48 ± 0.27 µM (IC50).
`O=C1Nc2ccc(F)cc2C1=Nc1ccc(C(=O)NNC(=S)Nc2ccccc2)cc1` [Compound 17b, 2-(4-((5-Fluoro-2-oxoindolin-3-ylidene)amino)benzoyl)-N-phenylhydrazinecarbothioamide] yielded a melting point of 203 to 205 °C. The same compound showed an IC50 in series [1] of 25.8 ± 1.3 µM. Moreover, it took 9.81 ± 0.48 µM to reach half-maximal inhibition in series [2] (IC50).
For the compound `O=C1Nc2ccc(F)cc2C1=Nc1ccc(C(=O)NN2C(=O)c3ccccc3C2=O)cc1` [Compound 12b, N-(1,3-Dioxoisoindolin-2-yl)-4-((5-fluoro-2-oxoindolin-3-ylidene)amino)benzamide], the melting point lay in the range of 225 to 227 °C. For the same compound, it took 33.8 ± 1.7 µM to reach half-maximal inhibition in series [1] (IC50). Further, half-maximal inhibition in series [2] (IC50) was put at 23.5 ± 1.15 µM.
With `NNC(=O)c1ccc(/N=C2\C(=O)Nc3ccccc32)cc1` [Compound 8a], the IC50 in series [1] turned out to be 27.2 ± 1.3 µM; in series [2], 24.9 ± 1.21 µM.
Compound `O=C1Nc2ccccc2C1=Nc1ccc(C(=O)NN2C(=O)c3ccccc3C2=O)cc1` [Compound 12a, N-(1,3-Dioxoisoindolin-2-yl)-4-((2-oxoindolin-3-ylidene)amino)benzamide] yielded a melting point of 187 to 189 °C. Further, half-maximal inhibition in series [1] (IC50) required 78.4 ± 3.81 µM. Besides, the IC50 in series [2] was determined as 130 ± 6.37 µM.
As to `CCOC(=O)CC(C)=NNC(=O)c1ccc(N=C2C(=O)Nc3ccccc32)cc1` [Compound 14a, Ethyl 3-(2-(4-((2-oxoindolin-3-ylidene)amino)benzoyl)hydrazono)butanoate], the melting point fell in the range of 206 to 208 °C. The compound also registered an IC50 in series [1] of 7.37 ± 0.4 µM. Also, the IC50 in series [2] was determined as 10.3 ± 0.81 µM.
Regarding `O=C1Nc2ccccc2/C1=N/c1ccc(C(=O)O)cc1` [Compound 3a], the IC50 came out at 51.6 ± 2.5 µM in series [1] and 62.4 ± 2.61 µM in series [2].
`O=C1Nc2ccc(F)cc2C1=Nc1ccc(-c2n[nH]c(=S)o2)cc1` [Compound 15b, 5-Fluoro-3-((4-(5-thioxo-4,5-dihydro-1,3,4-oxadiazol-2-yl)phenyl)imino)indolin-2-one] displayed a melting point of 231 to 233 °C. In series [1], this compound displayed an IC50 of 19.6 ± 1.8 µM. Also, half-maximal inhibition in series [2] (IC50) was put at 12.7 ± 0.62 µM.
Consider `NNC(=O)c1ccc(/N=C2\C(=O)Nc3ccc(F)cc32)cc1` [Compound 8b], for which the figures for the IC50 in series [1] and in series [2] were 40.7 ± 2.8 µM and 53.9 ± 2.63 µM, respectively.
With `O=C1Nc2ccc(F)cc2/C1=N/c1ccc(C(=O)O)cc1` [Compound 3b], the IC50 in series [1] was determined as 43.9 ± 2.1 µM; in series [2], 51.2 ± 2.5 µM.
